What was measured:
[1] = target: Cannabinoid receptor 1 (Homo sapiens, UniProt P21554); assay type: functional, cell-based
[2] = target: Neuronal acetylcholine receptor subunit alpha-4 (Homo sapiens, UniProt P43681)
[3] = target: Histamine H2 receptor (Homo sapiens, UniProt P25021); assay type: functional, cell-based
[4] = target: T1, Alpha-1A adrenergic receptor (Homo sapiens, UniProt P35348); assay type: functional, cell-based
T1 sequence (P35348 whole entry): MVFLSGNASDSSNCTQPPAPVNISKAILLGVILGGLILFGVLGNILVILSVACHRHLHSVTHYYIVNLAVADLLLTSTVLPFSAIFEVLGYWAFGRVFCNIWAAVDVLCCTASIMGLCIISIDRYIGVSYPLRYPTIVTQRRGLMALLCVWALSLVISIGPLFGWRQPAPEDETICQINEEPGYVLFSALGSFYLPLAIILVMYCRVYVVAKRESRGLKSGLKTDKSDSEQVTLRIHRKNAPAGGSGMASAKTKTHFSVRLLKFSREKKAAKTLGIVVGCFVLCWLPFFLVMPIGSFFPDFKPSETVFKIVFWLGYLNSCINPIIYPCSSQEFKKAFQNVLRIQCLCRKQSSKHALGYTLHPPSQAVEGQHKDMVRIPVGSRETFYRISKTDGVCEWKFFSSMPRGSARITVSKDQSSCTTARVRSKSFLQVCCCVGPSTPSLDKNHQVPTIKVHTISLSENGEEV

[5] = target: T2, Alpha-2B adrenergic receptor (Homo sapiens, UniProt P18089)
T2 sequence (P18089 whole entry): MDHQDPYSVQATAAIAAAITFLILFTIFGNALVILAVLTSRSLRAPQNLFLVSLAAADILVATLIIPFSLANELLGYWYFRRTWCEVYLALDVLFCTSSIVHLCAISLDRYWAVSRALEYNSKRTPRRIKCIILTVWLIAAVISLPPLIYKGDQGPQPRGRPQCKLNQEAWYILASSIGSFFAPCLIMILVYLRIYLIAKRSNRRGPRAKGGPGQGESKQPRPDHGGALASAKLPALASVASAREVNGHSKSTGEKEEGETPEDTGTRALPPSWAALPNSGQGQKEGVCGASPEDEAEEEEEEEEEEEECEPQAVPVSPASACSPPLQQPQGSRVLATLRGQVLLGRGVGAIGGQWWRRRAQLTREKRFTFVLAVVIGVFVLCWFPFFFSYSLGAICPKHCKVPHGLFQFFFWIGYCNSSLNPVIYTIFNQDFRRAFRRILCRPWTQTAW

[6] = target: Beta-1 adrenergic receptor (Homo sapiens, UniProt P08588); assay type: functional
Beta-1 adrenergic receptor, sequence (P08588 whole entry): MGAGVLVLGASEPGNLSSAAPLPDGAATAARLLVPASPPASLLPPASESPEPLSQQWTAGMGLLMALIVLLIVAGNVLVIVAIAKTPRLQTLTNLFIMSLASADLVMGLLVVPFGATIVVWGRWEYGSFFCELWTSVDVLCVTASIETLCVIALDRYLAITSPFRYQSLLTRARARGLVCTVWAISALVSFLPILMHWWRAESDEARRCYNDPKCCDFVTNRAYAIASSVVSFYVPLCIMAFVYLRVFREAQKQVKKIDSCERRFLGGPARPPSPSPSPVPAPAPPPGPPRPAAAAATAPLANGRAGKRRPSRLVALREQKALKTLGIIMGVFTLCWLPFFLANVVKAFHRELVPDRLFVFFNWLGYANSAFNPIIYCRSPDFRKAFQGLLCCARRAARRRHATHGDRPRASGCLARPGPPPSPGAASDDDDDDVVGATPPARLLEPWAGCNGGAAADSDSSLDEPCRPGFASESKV

[7] = target: T3, Histamine H3 receptor (Homo sapiens, UniProt Q9Y5N1)
T3 sequence (Q9Y5N1 whole entry): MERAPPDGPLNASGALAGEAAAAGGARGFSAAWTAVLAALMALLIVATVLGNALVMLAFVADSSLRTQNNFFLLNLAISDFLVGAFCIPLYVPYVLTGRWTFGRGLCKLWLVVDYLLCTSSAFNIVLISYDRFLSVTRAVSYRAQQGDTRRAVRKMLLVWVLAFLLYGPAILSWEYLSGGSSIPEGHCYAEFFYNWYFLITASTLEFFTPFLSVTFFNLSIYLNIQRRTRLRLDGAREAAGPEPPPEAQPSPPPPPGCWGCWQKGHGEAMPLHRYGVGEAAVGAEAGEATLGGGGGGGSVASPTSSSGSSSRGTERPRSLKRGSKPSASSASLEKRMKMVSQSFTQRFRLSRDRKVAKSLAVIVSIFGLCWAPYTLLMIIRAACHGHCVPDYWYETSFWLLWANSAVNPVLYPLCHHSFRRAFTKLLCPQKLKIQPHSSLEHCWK

[8] = target: T4, 5-hydroxytryptamine receptor 1A (Homo sapiens, UniProt P08908); assay type: functional, cell-based
T4 sequence (P08908 whole entry): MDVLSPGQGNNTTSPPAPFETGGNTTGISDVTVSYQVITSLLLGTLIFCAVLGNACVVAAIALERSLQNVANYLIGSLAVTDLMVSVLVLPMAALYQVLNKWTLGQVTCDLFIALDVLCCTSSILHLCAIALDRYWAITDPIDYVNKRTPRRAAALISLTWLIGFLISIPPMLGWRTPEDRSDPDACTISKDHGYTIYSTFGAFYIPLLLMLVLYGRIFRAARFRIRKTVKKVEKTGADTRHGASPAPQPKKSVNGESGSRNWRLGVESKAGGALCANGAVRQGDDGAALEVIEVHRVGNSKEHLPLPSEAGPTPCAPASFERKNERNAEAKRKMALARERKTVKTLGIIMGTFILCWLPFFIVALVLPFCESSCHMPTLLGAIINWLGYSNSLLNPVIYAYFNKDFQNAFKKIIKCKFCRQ

[9] = target: T5, Adenosine receptor A3 (Homo sapiens, UniProt P0DMS8)
T5 sequence (P0DMS8 whole entry): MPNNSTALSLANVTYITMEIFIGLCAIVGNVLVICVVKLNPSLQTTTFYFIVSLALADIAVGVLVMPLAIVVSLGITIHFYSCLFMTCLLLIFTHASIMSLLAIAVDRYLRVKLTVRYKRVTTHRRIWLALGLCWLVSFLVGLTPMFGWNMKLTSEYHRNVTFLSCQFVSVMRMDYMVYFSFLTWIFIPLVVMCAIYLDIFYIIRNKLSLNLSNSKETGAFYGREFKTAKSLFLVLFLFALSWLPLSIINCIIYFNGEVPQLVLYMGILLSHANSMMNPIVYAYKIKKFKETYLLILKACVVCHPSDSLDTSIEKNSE

[10] = target: T3, Histamine H3 receptor; remark: listed apart in the source
[11] = target: T6, Estrogen receptor (Homo sapiens, UniProt P03372)
T6 sequence (P03372 whole entry): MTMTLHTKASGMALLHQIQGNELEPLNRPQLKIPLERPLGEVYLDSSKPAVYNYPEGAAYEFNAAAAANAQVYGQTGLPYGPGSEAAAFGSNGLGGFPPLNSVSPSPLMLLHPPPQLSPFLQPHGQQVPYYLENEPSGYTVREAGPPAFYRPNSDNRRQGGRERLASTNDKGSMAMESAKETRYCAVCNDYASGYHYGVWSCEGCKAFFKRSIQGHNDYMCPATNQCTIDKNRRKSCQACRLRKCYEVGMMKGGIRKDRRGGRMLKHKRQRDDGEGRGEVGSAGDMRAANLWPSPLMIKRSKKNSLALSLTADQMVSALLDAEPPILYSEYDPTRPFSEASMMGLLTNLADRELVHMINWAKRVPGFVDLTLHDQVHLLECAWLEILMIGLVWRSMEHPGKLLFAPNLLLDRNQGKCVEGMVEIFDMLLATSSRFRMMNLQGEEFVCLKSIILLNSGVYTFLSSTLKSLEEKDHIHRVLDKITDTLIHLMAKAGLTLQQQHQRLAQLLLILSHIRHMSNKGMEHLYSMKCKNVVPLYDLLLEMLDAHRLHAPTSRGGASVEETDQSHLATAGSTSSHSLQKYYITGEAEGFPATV

[12] = target: Prostaglandin G/H synthase 1 (Homo sapiens, UniProt P23219); assay type: functional
Prostaglandin G/H synthase 1, sequence (P23219 whole entry): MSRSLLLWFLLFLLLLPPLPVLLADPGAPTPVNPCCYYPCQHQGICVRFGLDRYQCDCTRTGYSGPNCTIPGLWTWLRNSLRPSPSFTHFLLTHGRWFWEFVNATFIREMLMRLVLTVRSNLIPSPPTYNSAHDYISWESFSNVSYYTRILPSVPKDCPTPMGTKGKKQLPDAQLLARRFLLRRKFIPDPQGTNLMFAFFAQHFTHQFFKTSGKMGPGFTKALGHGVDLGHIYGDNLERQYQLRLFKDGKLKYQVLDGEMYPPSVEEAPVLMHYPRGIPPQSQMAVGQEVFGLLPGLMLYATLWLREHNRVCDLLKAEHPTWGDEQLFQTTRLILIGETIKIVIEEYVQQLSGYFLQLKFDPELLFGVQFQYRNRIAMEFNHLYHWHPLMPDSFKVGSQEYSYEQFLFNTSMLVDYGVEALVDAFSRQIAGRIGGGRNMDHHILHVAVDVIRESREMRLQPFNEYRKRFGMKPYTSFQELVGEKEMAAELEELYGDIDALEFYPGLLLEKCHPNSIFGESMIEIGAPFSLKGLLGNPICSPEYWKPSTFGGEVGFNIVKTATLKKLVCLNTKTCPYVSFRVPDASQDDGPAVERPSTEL

[13] = target: cGMP-inhibited 3',5'-cyclic phosphodiesterase 3A (Homo sapiens, UniProt Q14432); assay type: functional
cGMP-inhibited 3',5'-cyclic phosphodiesterase 3A, sequence (Q14432 whole entry): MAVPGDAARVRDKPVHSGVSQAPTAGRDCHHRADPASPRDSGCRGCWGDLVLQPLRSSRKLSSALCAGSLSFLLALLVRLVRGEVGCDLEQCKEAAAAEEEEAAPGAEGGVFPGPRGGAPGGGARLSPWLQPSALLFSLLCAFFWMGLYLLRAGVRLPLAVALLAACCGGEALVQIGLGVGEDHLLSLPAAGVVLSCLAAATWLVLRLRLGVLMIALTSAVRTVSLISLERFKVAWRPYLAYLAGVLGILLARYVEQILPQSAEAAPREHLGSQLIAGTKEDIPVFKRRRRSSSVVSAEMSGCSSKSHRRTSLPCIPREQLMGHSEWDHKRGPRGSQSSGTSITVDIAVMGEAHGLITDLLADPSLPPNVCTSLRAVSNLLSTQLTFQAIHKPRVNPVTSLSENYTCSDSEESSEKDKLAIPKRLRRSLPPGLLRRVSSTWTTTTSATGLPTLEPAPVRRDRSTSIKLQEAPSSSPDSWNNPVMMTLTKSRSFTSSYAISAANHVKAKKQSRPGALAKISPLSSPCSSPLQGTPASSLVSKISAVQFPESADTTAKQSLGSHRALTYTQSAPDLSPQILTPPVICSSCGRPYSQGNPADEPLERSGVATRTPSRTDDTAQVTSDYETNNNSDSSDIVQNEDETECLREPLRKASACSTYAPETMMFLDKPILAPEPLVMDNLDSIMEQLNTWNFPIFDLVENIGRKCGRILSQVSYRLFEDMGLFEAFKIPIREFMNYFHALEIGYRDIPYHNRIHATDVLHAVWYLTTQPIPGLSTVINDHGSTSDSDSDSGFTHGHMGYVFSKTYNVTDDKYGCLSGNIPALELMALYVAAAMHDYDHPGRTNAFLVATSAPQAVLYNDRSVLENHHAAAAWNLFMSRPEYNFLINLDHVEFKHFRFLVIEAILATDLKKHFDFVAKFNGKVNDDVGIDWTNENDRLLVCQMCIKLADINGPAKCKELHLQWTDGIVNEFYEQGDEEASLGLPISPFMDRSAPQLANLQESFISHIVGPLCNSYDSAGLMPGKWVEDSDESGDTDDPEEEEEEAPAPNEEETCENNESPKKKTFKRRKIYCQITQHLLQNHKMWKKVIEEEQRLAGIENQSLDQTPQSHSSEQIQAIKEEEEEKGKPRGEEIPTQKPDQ

[14] = target: T1, Alpha-1A adrenergic receptor; assay type: functional, cell-based; remark: listed apart in the source

Measured: AC50
Also: assay procedure not described here.

Histamine H2 receptor, sequence (P25021 whole entry): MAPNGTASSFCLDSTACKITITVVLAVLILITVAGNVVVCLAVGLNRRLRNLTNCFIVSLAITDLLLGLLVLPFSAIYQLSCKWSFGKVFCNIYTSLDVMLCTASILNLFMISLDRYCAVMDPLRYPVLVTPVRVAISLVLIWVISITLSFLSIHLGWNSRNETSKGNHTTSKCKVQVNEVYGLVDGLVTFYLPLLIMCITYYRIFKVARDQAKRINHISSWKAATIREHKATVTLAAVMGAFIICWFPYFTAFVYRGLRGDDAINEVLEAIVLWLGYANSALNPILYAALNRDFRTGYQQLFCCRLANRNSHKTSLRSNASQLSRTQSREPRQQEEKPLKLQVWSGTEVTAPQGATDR
Neuronal acetylcholine receptor subunit alpha-4, sequence (P43681 whole entry): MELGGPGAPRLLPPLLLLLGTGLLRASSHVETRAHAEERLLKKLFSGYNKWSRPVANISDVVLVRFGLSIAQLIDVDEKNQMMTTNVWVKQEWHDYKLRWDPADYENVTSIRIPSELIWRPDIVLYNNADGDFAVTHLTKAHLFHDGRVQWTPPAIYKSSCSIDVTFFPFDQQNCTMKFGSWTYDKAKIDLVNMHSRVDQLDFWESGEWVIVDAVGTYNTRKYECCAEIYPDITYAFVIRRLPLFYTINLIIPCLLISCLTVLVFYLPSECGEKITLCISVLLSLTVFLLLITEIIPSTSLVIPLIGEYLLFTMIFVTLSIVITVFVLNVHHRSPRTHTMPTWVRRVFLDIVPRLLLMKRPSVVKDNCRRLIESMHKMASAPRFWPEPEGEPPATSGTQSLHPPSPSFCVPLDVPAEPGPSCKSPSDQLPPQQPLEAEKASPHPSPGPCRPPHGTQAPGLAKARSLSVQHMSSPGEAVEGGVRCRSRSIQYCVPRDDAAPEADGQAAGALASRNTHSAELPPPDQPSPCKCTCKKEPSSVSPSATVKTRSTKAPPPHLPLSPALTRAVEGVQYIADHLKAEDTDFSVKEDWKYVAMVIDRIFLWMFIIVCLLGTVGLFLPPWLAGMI
Cannabinoid receptor 1, sequence (P21554 whole entry): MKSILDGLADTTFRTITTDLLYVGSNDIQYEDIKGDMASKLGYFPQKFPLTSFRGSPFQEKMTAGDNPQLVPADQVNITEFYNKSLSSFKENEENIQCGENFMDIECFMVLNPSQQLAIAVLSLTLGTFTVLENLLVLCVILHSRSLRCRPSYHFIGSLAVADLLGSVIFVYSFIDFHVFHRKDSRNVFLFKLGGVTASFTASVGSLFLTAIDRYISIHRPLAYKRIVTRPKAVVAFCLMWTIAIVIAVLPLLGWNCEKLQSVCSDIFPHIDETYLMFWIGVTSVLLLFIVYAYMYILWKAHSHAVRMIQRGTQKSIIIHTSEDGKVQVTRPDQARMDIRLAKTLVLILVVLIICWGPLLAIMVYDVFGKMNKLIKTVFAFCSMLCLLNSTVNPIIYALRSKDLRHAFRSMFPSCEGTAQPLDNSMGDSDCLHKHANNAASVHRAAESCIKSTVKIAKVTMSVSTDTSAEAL

CCN(CC)C(=O)C1(c2ccccc2)CC1CN (centres undefined)
> 30 µM: [1] | [2] | [3] | [4] | [5] | [6] | [7] | [8]

CN(C)C(=O)Oc1cccc([N+](C)(C)C)c1 [NEOSTIGMINE]
> 30 µM: [9] | [10] | [11] | [12] | [13] | [14]

— ChEMBL document CHEMBL5291721, “A preclinical secondary pharmacology resource illuminates target-adverse drug reaction associations of marketed drugs” (Nat Commun, 2023)
